These molecules were tested on P. falciparum K1 (strain resistant to chloroquine and pyrimethamine), erythrocytic stages (assay: Plasmodium falciparum in vitro assay, [3H] hypoxanthine incorporation). Conditions: Plasmodium falciparum, K1, P. falciparum strain K1; [3H] hypoxanthine incorporation; read-out: IC50 (nM) on K1.
Assay type: cell-based
Procedure, shortened: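 Chloroquine/pyrimethamine-resistant K1 erythrocytic cultures (2.5% haematocrit, 0.3% parasitaemia, hypoxanthine-free RPMI with Albumax) exposed to seven doubling dilutions at 37 °C under low O2.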

| IC50 [nM] | SMILES |
| --- | --- |
| 13 | COc1ccc(COCCN(C)C(=O)[C@H](Cc2ccccc2)N(Cc2ccc(N3CCN(C(C)=O)CC3)cc2)C(=O)C=Cc2ccc(C(F)(F)F)cc2)cc1F [Example 184, (S)-N-[4-(4-Acetyl-piperazin-1-yl)-benzyl]-N-(1-{[2-(3-fluoro-4-methoxy-benzyloxy)-ethyl]-methyl-carbamoyl}-2-phenyl-ethyl)-3-(4-trifluoromethyl-phenyl)-acrylamide, formic acid] |
| 7 | COc1cccc(COCCN(C)C(=O)[C@H](Cc2ccccc2)N(Cc2ccc(N3CCN(C(C)=O)CC3)cc2)C(=O)C=Cc2ccc(C(F)(F)F)cc2)c1 [Example 187, (S)-N-[4-(4-Acetyl-piperazin-1-yl)-benzyl]-N-(1-{[2-(3-methoxy-benzyloxy)-ethyl]-methyl-carbamoyl}-2-phenyl-ethyl)-3-(4-trifluoromethyl-phenyl)-acrylamide, formic acid] |
| 27 | COCCN(C)C(=O)[C@H](Cc1ccccc1)N(Cc1ccc(-c2ccccn2)cc1)C(=O)C=Cc1ccc(C)nc1 [Example 84, (S)-N-{1-[(2-Methoxy-ethyl)-methyl-carbamoyl]-2-phenyl-ethyl}-3-(6-methyl-pyridin-3-yl)-N-(4-pyridin-2-yl-benzyl)-acrylamide] |
| 53 | Cc1ccccc1CN(C)CCN(C)C(=O)[C@H](Cc1ccccc1)N(Cc1ccc(-c2ccccn2)cc1)C(=O)C=Cc1ccc(C(F)(F)F)cc1 [Example 233, (S)-N-[1-(Methyl-{2-[methyl-(2-methyl-benzyl)-amino]-ethyl}-carbamoyl)-2-phenyl-ethyl]-N-(4-pyridin-2-yl-benzyl)-3-(4-trifluoromethyl-phenyl)-acrylamide] |
| 57 | CC(=O)N1CCN(c2ccc(CN(C(=O)C=Cc3ccc(C(F)(F)F)nc3)[C@@H](Cc3ccccc3)C(=O)N(C)CCOCc3ccncc3)cc2)CC1 [Example 208, (S)-N-[4-(4-Acetyl-piperazin-1-yl)-benzyl]-N-(1-{methyl-[2-(pyridin-4-ylmethoxy)-ethyl]-carbamoyl}-2-phenyl-ethyl)-3-(6-trifluoromethyl-pyridin-3-yl)-acrylamide] |
| 9 | CC(=O)N1CCN(c2ccc(CN(C(=O)C=Cc3ccc(C(F)(F)F)cc3)[C@@H](Cc3ccccc3)C(=O)N(C)CCOCc3cc(C)on3)cc2)CC1 [Example 204, (S)-N-[4-(4-Acetyl-piperazin-1-yl)-benzyl]-N-(1-{methyl-[2-(5-methyl-isoxazol-3-ylmethoxy)-ethyl]-carbamoyl}-2-phenyl-ethyl)-3-(4-trifluoromethyl-phenyl)-acrylamide] |
| 81 | COCCN(C)C(=O)[C@H](Cc1ccccc1)N(Cc1ccc(-c2cncnc2)cc1)C(=O)C=Cc1ccn(C)n1 [Example 119, (S)-N-{1-[(2-Methoxy-ethyl)-methyl-carbamoyl]-2-phenyl-ethyl}-3-(1-methyl-1H-pyrazol-3-yl)-N-(4-pyrimidin-5-yl-benzyl)-acrylamide] |
| 16 | CC(=O)N1CCN(c2ccc(CN(C(=O)C=Cc3ccc(C(F)(F)F)cc3)[C@@H](Cc3ccccc3)C(=O)N(C)CCOCc3ccncc3)cc2)CC1 [Example 205, (S)-N-[4-(4-Acetyl-piperazin-1-yl)-benzyl]-N-(1-{methyl-[2-(pyridin-4-ylmethoxy)-ethyl]-carbamoyl}-2-phenyl-ethyl)-3-(4-trifluoromethyl-phenyl)-acrylamide] |
| 29 | CN(CCN(C)C(=O)[C@H](Cc1ccccc1)N(Cc1ccc(-c2ccccn2)cc1)C(=O)C=Cc1ccc(C(F)(F)F)cc1)Cc1ccccn1 [Example 224, (S)-N-(1-{Methyl-[2-(methyl-pyridin-2-ylmethyl-amino)-ethyl]-carbamoyl}-2-phenyl-ethyl)-N-(4-pyridin-2-yl-benzyl)-3-(4-trifluoromethyl-phenyl)-acrylamide] |
| 32 | CN(CCN(C)C(=O)[C@H](Cc1ccccc1)N(Cc1ccc(N2CCOCC2)cc1)C(=O)C=Cc1ccc(C(F)(F)F)cc1)Cc1cccnc1 [Example 259, (S)-N-(1-{Methyl-[2-(methyl-pyridin-3-ylmethyl-amino)-ethyl]-carbamoyl}-2-phenyl-ethyl)-N-(4-morpholin-4-yl-benzyl)-3-(4-trifluoromethyl-phenyl)-acrylamide] |
| 43 | CN(CCN(C)C(=O)[C@H](Cc1ccccc1)N(Cc1ccc(N2CCOCC2)cc1)C(=O)C=Cc1ccc(C(F)(F)F)cc1)Cc1cccc(O)c1 [Example 258, (S)-N-[1-({2-[(3-Hydroxy-benzyl)-methyl-amino]-ethyl}-methyl-carbamoyl)-2-phenyl-ethyl]-N-(4-morpholin-4-yl-benzyl)-3-(4-trifluoromethyl-phenyl)-acrylamide] |
| 48 | CN(CCN(C)C(=O)[C@H](Cc1ccccc1)N(Cc1ccc(N2CCOCC2)cc1)C(=O)C=Cc1ccc(C(F)(F)F)cc1)Cc1cccc(C#N)c1 [Example 261, (S)-N-[1-({2-[(3-Cyano-benzyl)-methyl-amino]-ethyl}-methyl-carbamoyl)-2-phenyl-ethyl]-N-(4-morpholin-4-yl-benzyl)-3-(4-trifluoromethyl-phenyl)-acrylamide] |
| 20 | CN(CCN(C)C(=O)[C@H](Cc1ccccc1)N(Cc1ccc(-c2ccccn2)cc1)C(=O)C=Cc1ccc(C(F)(F)F)cc1)Cc1cccs1 [Example 225, (S)-N-(1-{Methyl-[2-(methyl-thiophen-2-ylmethyl-amino)-ethyl]-carbamoyl}-2-phenyl-ethyl)-N-(4-pyridin-2-yl-benzyl)-3-(4-trifluoromethyl-phenyl)-acrylamide] |
| 80 | Cc1ccc(CN(C)CCN(C)C(=O)[C@H](Cc2ccccc2)N(Cc2ccc(N3CCOCC3)cc2)C(=O)C=Cc2ccc(C(F)(F)F)cc2)c(F)c1F [Example 268, (S)-N-[1-({2-[(2,3-Difluoro-4-methyl-benzyl)-methyl-amino]-ethyl}-methyl-carbamoyl)-2-phenyl-ethyl]-N-(4-morpholin-4-yl-benzyl)-3-(4-trifluoromethyl-phenyl)-acrylamide] |

Continued, molecule first:

| SMILES | IC50 [nM] |
| --- | --- |
| COc1ccc(C=CC(=O)N(Cc2ccc(N3CCN(C(C)=O)CC3)cc2)[C@@H](Cc2ccccc2)C(=O)N2CCC(N(C)C)CC2)cn1 [Example 34, (S)-N-[4-(4-Acetyl-piperazin-1-yl)-benzyl]-N-[1-benzyl-2-(4-dimethylamino-piperidin-1-yl)-2-oxo-ethyl]-3-(6-methoxy-pyridin-3-yl)-acrylamide] | 433 |
| CN(C)C1CCN(C(=O)[C@H](Cc2ccccc2)N(Cc2ccc(-c3cncnc3)cc2)C(=O)C=Cc2ccc(Cl)nc2)CC1 [Example 40, (S)-N-[1-Benzyl-2-(4-dimethylamino-piperidin-1-yl)-2-oxo-ethyl]-3-(6-chloro-pyridin-3-yl)-N-(4-pyrimidin-5-yl-benzyl)-acrylamide] | 490 |
| O=C([C@H](Cc1ccccc1)N(Cc1ccccc1)C(=O)C=Cc1ccc(C(F)(F)F)cc1)N1CCC(Cc2ccccc2)CC1 [Example 45, (S)-N-Benzyl-N-[1-benzyl-2-(4-benzyl-piperidin-1-yl)-2-oxo-ethyl]-3-(4-trifluoromethyl-phenyl)-acrylamide] | 4 |
| Cc1nn(C)c(C)c1C=CC(=O)N(Cc1ccc(-c2ccncc2)cc1)[C@@H](Cc1ccccc1)C(=O)N1CCC(N(C)C)CC1 [Example 21, (S)-N-[1-Benzyl-2-(4-dimethylamino-piperidin-1-yl)-2-oxo-ethyl]-N-(4-pyridin-4-yl-benzyl)-3-(1,3,5-trimethyl-1H-pyrazol-4-yl)-acrylamide] | 14 |
| COc1ccc(C=CC(=O)N(Cc2ccc(N3CCOCC3)cc2)[C@@H](Cc2ccccc2)C(=O)N2CCC(N(C)C)CC2)cn1 [Example 5, (S)-N-[1-Benzyl-2-(4-dimethylamino-piperidin-1-yl)-2-oxo-ethyl]-3-(6-methoxy-pyridin-3-yl)-N-(4-morpholin-4-yl-benzyl)-acrylamide] | 319 |
| Cc1c(C=CC(=O)N(Cc2ccc(-c3ccccn3)cc2)[C@@H](Cc2ccccc2)C(=O)N2CCC(N(C)C)CC2)cnn1C [Example 18, (S)-N-[1-Benzyl-2-(4-dimethylamino-piperidin-1-yl)-2-oxo-ethyl]-3-(1,5-dimethyl-1H-pyrazol-4-yl)-N-(4-pyridin-2-yl-benzyl)-acrylamide] | 273 |
| O=C(NC1CN2CCC1CC2)[C@H](Cc1ccccc1)N(Cc1ccc(-c2ccccn2)cc1)C(=O)C=Cc1ccc(C(F)(F)F)cc1 (mixture of isomers) [Example 152] | 242 |
| CN(C)[C@@H]1CCN(C(=O)[C@H](Cc2ccccc2)N(Cc2ccc(-c3ccccn3)cc2)C(=O)C=Cc2ccc(C(F)(F)F)cc2)C1 [Example 53, N-[(S)-1-Benzyl-2-((R)-3-dimethylamino-pyrrolidin-1-yl)-2-oxo-ethyl]-N-(4-pyridin-2-yl-benzyl)-3-(4-trifluoromethyl-phenyl)-acrylamide] | 14 |
| CN(C)C1CCN(C(=O)[C@H](Cc2ccccc2)N(Cc2ccc(-c3ccncc3)cc2)C(=O)C=Cc2ccn(C)n2)CC1 [Example 19, (S)-N-[1-Benzyl-2-(4-dimethylamino-piperidin-1-yl)-2-oxo-ethyl]-3-(1-methyl-1H-pyrazol-3-yl)-N-(4-pyridin-4-yl-benzyl)-acrylamide] | 250 |
| COCCN(C)C(=O)[C@H](Cc1ccccc1)N(Cc1ccc(-c2ccccn2)cc1)C(=O)C=Cc1cc(C)on1 [Example 79, (S)-N-{1-[(2-Methoxy-ethyl)-methyl-carbamoyl]-2-phenyl-ethyl}-3-(5-methyl-isoxazol-3-yl)-N-(4-pyridin-2-yl-benzyl)-acrylamide] | 288 |
| Cc1noc(C)c1C=CC(=O)N(Cc1ccc(-c2ccccn2)cc1)[C@@H](Cc1ccccc1)C(=O)N1CCC(N(C)C)CC1 [Example 12, (S)-N-[1-Benzyl-2-(4-dimethylamino-piperidin-1-yl)-2-oxo-ethyl]-3-(3,5-dimethyl-isoxazol-4-yl)-N-(4-pyridin-2-yl-benzyl)-acrylamide] | 220 |

Reference: patent US20110224210A1, “NOVEL BIS-AMIDES AS ANTI-MALARIAL AGENTS” (priority 2008, published 2011)
